Results reported in PubChem BioAssay (NCI).
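Step 1: Grow cells in 96-well plates. Step 2: Expose to compound for 48 hours at 5 concentrations. Step 3: Interpolate endpoints linearly; if unreached, use highest concentration. GI50: concentration for 50% inhibition of growth. TGI denotes the concentration required for complete inhibition of growth.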

Legend:
Test in all cases: DTP human tumour cell line panel, 48 h
SNB-75 CNS = test system: SNB-75 CNS
HOP-92 NSCLC = test system: HOP-92 NSCLC
EKVX NSCLC = test system: EKVX NSCLC
HCC-2998 colon = test system: HCC-2998 colon
U251 CNS = test system: U251 CNS
CCRF-CEM leukemia = test system: CCRF-CEM leukemia
K-562 leukemia = test system: K-562 leukemia
SK-MEL-28 melanoma = test system: SK-MEL-28 melanoma
NCI-H226 lung = test system: NCI-H226 lung
A498 renal = test system: A498 renal
DU-145 prostate = test system: DU-145 prostate
HT29 colon = test system: HT29 colon
KM12 colon = test system: KM12 colon
HCT-15 colon = test system: HCT-15 colon
SW-620 colon = test system: SW-620 colon
T-47D breast = test system: T-47D breast
HOP-62 NSCLC = test system: HOP-62 NSCLC
MDA-MB-231 breast = test system: MDA-MB-231 breast
SR leukemia = test system: SR leukemia
UACC-62 melanoma = test system: UACC-62 melanoma
MALME-3M melanoma = test system: MALME-3M melanoma
IGROV1 ovarian = test system: IGROV1 ovarian
ACHN renal = test system: ACHN renal
SF-268 CNS = test system: SF-268 CNS
RPMI-8226 leukemia = test system: RPMI-8226 leukemia
OVCAR-8 ovarian = test system: OVCAR-8 ovarian
MCF7 breast = test system: MCF7 breast
SK-OV-3 ovarian = test system: SK-OV-3 ovarian
SF-539 CNS = test system: SF-539 CNS
SK-MEL-5 melanoma = test system: SK-MEL-5 melanoma
NCI-H522 lung = test system: NCI-H522 lung
MDA-MB-435 = test system: MDA-MB-435
OVCAR-4 ovarian = test system: OVCAR-4 ovarian
SN12C renal = test system: SN12C renal
OVCAR-5 ovarian = test system: OVCAR-5 ovarian
SF-295 CNS = test system: SF-295 CNS
PC-3 prostate = test system: PC-3 prostate
RXF 393 renal = test system: RXF 393 renal
UACC-257 melanoma = test system: UACC-257 melanoma
BT-549 breast = test system: BT-549 breast
NCI-H23 lung = test system: NCI-H23 lung
A549 NSCLC = test system: A549 NSCLC
SK-MEL-2 melanoma = test system: SK-MEL-2 melanoma
TK-10 renal = test system: TK-10 renal
COLO 205 colon = test system: COLO 205 colon
MOLT-4 leukemia = test system: MOLT-4 leukemia
NCI-H460 lung = test system: NCI-H460 lung
HS 578T breast = test system: HS 578T breast
CAKI-1 renal = test system: CAKI-1 renal
HCT-116 colon = test system: HCT-116 colon
UO-31 renal = test system: UO-31 renal
HL-60(TB) leukemia = test system: HL-60(TB) leukemia
NCI/ADR-RES ovarian = test system: NCI/ADR-RES ovarian
SNB-19 CNS = test system: SNB-19 CNS
OVCAR-3 ovarian = test system: OVCAR-3 ovarian
786-0 renal = test system: 786-0 renal
M14 melanoma = test system: M14 melanoma
LOX IMVI melanoma = test system: LOX IMVI melanoma

CCN(CC)Cc1cc(Nc2c3ccccc3nc3c4ccccc4n(C)c23)cc(CN(CC)CC)c1O
TGI (SNB-75 CNS): 25.2 µM | TGI (HOP-92 NSCLC): 17.2 µM | TGI (EKVX NSCLC): 21.4 µM | TGI (HCC-2998 colon): 19.2 µM | TGI (U251 CNS): 20.1 µM | TGI (CCRF-CEM leukemia): 14.2 µM | TGI (K-562 leukemia): > 35 µM | TGI (SK-MEL-28 melanoma): 6.34 µM | TGI (NCI-H226 lung): 18.4 µM | TGI (A498 renal): 18.4 µM | TGI (DU-145 prostate): 23.3 µM | TGI (HT29 colon): 11.8 µM | TGI (KM12 colon): 20.7 µM | TGI (HCT-15 colon): 14.4 µM | TGI (SW-620 colon): 13.3 µM | TGI (T-47D breast): 15.7 µM | TGI (HOP-62 NSCLC): 20.4 µM | TGI (MDA-MB-231 breast): 13.4 µM | TGI (SR leukemia): 10.7 µM | TGI (UACC-62 melanoma): 10.4 µM | TGI (MALME-3M melanoma): 5.25 µM | TGI (IGROV1 ovarian): 24.6 µM | TGI (ACHN renal): 13.8 µM | TGI (SF-268 CNS): 28.8 µM | TGI (RPMI-8226 leukemia): > 100 µM | TGI (OVCAR-8 ovarian): 20.8 µM | TGI (MCF7 breast): 19.3 µM | TGI (SK-OV-3 ovarian): 32.5 µM | TGI (SF-539 CNS): 15.2 µM | TGI (SK-MEL-5 melanoma): 3.72 µM | TGI (NCI-H522 lung): 4.77 µM | TGI (MDA-MB-435): 10.2 µM | TGI (OVCAR-4 ovarian): 18 µM | TGI (SN12C renal): 20.4 µM | TGI (OVCAR-5 ovarian): 22.1 µM | TGI (SF-295 CNS): 17.6 µM | TGI (PC-3 prostate): 11.8 µM | TGI (RXF 393 renal): 10.1 µM | TGI (UACC-257 melanoma): 7.07 µM | TGI (BT-549 breast): 11.1 µM | TGI (NCI-H23 lung): 27 µM | TGI (A549 NSCLC): 31.9 µM | TGI (SK-MEL-2 melanoma): 7.6 µM | TGI (TK-10 renal): 28.1 µM | TGI (COLO 205 colon): 10.8 µM | TGI (MOLT-4 leukemia): > 33.3 µM | TGI (NCI-H460 lung): 16 µM | TGI (HS 578T breast): 26.6 µM | TGI (CAKI-1 renal): 29.2 µM | TGI (HCT-116 colon): 11 µM | TGI (UO-31 renal): 6.68 µM | TGI (HL-60(TB) leukemia): 12.2 µM | TGI (NCI/ADR-RES ovarian): 8.89 µM | TGI (SNB-19 CNS): 27.4 µM | TGI (OVCAR-3 ovarian): 11.2 µM | TGI (786-0 renal): 14.9 µM | TGI (M14 melanoma): 3.37 µM

CCN1CCN(c2cc(C)nc(N(CCNc3ccnc4cc(Cl)ccc34)Cc3ccc4c(c3)OCO4)n2)CC1
GI50 (SNB-75 CNS): 1.33 µM | TGI (SNB-75 CNS): 2.72 µM | GI50 (HOP-92 NSCLC): 1.21 µM | TGI (HOP-92 NSCLC): 3.71 µM | GI50 (EKVX NSCLC): 2.33 µM | TGI (EKVX NSCLC): 7.91 µM | GI50 (HCC-2998 colon): 2.09 µM | TGI (HCC-2998 colon): 4.22 µM | GI50 (U251 CNS): 1.49 µM | TGI (U251 CNS): 3.16 µM | GI50 (CCRF-CEM leukemia): 0.728 µM | TGI (CCRF-CEM leukemia): 4.69 µM | GI50 (LOX IMVI melanoma): 1.5 µM | TGI (LOX IMVI melanoma): 2.89 µM | GI50 (K-562 leukemia): 0.355 µM | TGI (K-562 leukemia): 1.7 µM | GI50 (SK-MEL-28 melanoma): 1.72 µM | TGI (SK-MEL-28 melanoma): 3.5 µM | GI50 (NCI-H226 lung): 2.43 µM | TGI (NCI-H226 lung): 7.05 µM | GI50 (A498 renal): 1.5 µM | TGI (A498 renal): 3.3 µM | GI50 (DU-145 prostate): 2.23 µM | TGI (DU-145 prostate): 7.25 µM | GI50 (HT29 colon): 1.16 µM | TGI (HT29 colon): 3.71 µM | GI50 (KM12 colon): 1.8 µM | TGI (KM12 colon): 5.97 µM | GI50 (HCT-15 colon): 0.875 µM | TGI (HCT-15 colon): 2.69 µM | GI50 (SW-620 colon): 1.58 µM | TGI (SW-620 colon): 3.45 µM | GI50 (T-47D breast): 1.99 µM | TGI (T-47D breast): 4.96 µM | GI50 (HOP-62 NSCLC): 1.94 µM | TGI (HOP-62 NSCLC): 5.21 µM | GI50 (MDA-MB-231 breast): 1.37 µM | TGI (MDA-MB-231 breast): 3 µM | GI50 (SR leukemia): 0.189 µM | TGI (SR leukemia): 0.544 µM | GI50 (UACC-62 melanoma): 1.83 µM | TGI (UACC-62 melanoma): 3.63 µM | GI50 (MALME-3M melanoma): 1.67 µM | TGI (MALME-3M melanoma): 3.37 µM | GI50 (IGROV1 ovarian): 1.48 µM | TGI (IGROV1 ovarian): 3.92 µM | GI50 (ACHN renal): 1.86 µM | TGI (ACHN renal): 4.39 µM | GI50 (SF-268 CNS): 1.8 µM | TGI (SF-268 CNS): 3.72 µM | GI50 (RPMI-8226 leukemia): 1.2 µM | TGI (RPMI-8226 leukemia): 3.37 µM | GI50 (OVCAR-8 ovarian): 1.64 µM | TGI (OVCAR-8 ovarian): 3.36 µM | GI50 (MCF7 breast): 1.19 µM | TGI (MCF7 breast): 2.83 µM | GI50 (SK-OV-3 ovarian): 2.12 µM | TGI (SK-OV-3 ovarian): 5.34 µM | GI50 (SF-539 CNS): 1.52 µM | TGI (SF-539 CNS): 3.12 µM | GI50 (SK-MEL-5 melanoma): 1.56 µM | TGI (SK-MEL-5 melanoma): 2.93 µM | GI50 (NCI-H522 lung): 1.58 µM | TGI (NCI-H522 lung): 3.18 µM | GI50 (MDA-MB-435): 1.48 µM | TGI (MDA-MB-435): 2.9 µM | GI50 (OVCAR-4 ovarian): 1.93 µM | TGI (OVCAR-4 ovarian): 6.18 µM | GI50 (SN12C renal): 1.83 µM | TGI (SN12C renal): 3.71 µM | GI50 (OVCAR-5 ovarian): 2.53 µM | TGI (OVCAR-5 ovarian): 6.51 µM | GI50 (SF-295 CNS): 1.45 µM | TGI (SF-295 CNS): 2.98 µM | GI50 (PC-3 prostate): 1.98 µM | TGI (PC-3 prostate): 7 µM | GI50 (RXF 393 renal): 0.688 µM | TGI (RXF 393 renal): 2.12 µM | GI50 (UACC-257 melanoma): 2.05 µM | TGI (UACC-257 melanoma): 3.88 µM | GI50 (BT-549 breast): 1.54 µM | TGI (BT-549 breast): 3.13 µM | GI50 (NCI-H23 lung): 1.88 µM | TGI (NCI-H23 lung): 5.01 µM | GI50 (A549 NSCLC): 2.13 µM | TGI (A549 NSCLC): 4.93 µM | GI50 (SK-MEL-2 melanoma): 1.63 µM | TGI (SK-MEL-2 melanoma): 3.15 µM | GI50 (COLO 205 colon): 1.51 µM | TGI (COLO 205 colon): 3.26 µM | GI50 (MOLT-4 leukemia): 0.728 µM | TGI (MOLT-4 leukemia): 3.1 µM | GI50 (NCI-H460 lung): 1.77 µM | TGI (NCI-H460 lung): 3.61 µM | GI50 (HS 578T breast): 1.79 µM | TGI (HS 578T breast): 4.15 µM | GI50 (HCT-116 colon): 1.03 µM | TGI (HCT-116 colon): 2.39 µM | GI50 (UO-31 renal): 1.36 µM | TGI (UO-31 renal): 3.3 µM | GI50 (HL-60(TB) leukemia): 1.9 µM | TGI (HL-60(TB) leukemia): 3.84 µM | GI50 (NCI/ADR-RES ovarian): 1.6 µM | TGI (NCI/ADR-RES ovarian): 3.51 µM | GI50 (SNB-19 CNS): 2.67 µM | TGI (SNB-19 CNS): 8.49 µM | GI50 (OVCAR-3 ovarian): 1.2 µM | TGI (OVCAR-3 ovarian): 2.64 µM | GI50 (786-0 renal): 1.49 µM | TGI (786-0 renal): 2.9 µM | GI50 (M14 melanoma): 1.49 µM | TGI (M14 melanoma): 2.95 µM
